Test results: PMC12003167 (Nature, 2025)

How the values were obtained:
[1] = target: T1, chanoclavine synthase (EasC) from Claviceps fusiformis (EasCCf) (Claviceps fusiformis, UniProt A8C7R6); assay: PCC conversion assay by LC–MS; type: biochemical
T1 sequence (A8C7R6 1-479): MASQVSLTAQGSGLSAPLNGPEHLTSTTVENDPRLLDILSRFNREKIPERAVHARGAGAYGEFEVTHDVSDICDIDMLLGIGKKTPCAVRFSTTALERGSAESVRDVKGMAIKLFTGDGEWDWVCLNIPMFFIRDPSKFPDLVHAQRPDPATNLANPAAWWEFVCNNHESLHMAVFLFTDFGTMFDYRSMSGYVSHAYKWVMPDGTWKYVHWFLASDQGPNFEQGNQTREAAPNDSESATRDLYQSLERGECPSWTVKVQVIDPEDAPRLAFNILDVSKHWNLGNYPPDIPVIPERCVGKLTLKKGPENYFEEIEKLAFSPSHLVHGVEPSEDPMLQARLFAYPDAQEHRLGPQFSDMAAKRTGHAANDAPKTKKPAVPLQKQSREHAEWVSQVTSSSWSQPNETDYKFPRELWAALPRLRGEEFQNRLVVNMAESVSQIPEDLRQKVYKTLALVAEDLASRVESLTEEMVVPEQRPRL

cryo-EM structure = target: the molecule itself; assay: cryo-EM structure

Molecule: NO [NH2OH, hydroxylamine]
- IC50 [1]: 720 µM

B1: chanoclavine synthase (EasC) from Claviceps fusiformis (enzyme)
chain: T1 sequence (A8C7R6 1-479)
- stoichiometry N (cryo-EM structure): 2
